The source of these data is ChEMBL document CHEMBL5579831, “Discovery of novel CXCR4 inhibitors for the treatment of inflammation by virtual screening and biological evaluation” (Eur J Med Chem, 2024).

Series [1] deals with T1, C-X-C chemokine receptor type 4 (Homo sapiens, UniProt P61073). Description: Inhibition of fluorescently labeled 12G5 antibodies binding to CXCR4 in human MDA-MB-231 cells assessed as change in fluorescence intensity incubated for 3 hrs under dark condition by FACS assay. It is filed as cell-based. (In general: Flow cytometry measures light scatter and fluorescence of single cells or particles in a stream.)

The subject of series [2] is MDA-MB-231. Kind of series: Inhibition of CXCR4/CXCL12 interaction in human MDA-MB-231 cells assessed as reduction in cell invasion at 100 nM measured after 24 hrs by H and E staining based matrix gel invasion assay.
Series [3] relates to MDA-MB-231. Kind of series: Inhibition of cell migration in human MDA-MB-231 cells at 100 nM measured after 24 hrs by wound healing based inverted microscopic analysis. It is filed as functional.
For series [4], the system named is MDA-MB-231. Kind of series: Inhibition of CXCR4/CXCL12-mediated AKT phosphorylation in human MDA-MB-231 cells by Western blot analysis. It is filed as cell-based. To be noted: dose 0.1-100 nM. Background: A western blot detects proteins with antibodies after separation by electrophoresis.
The target of series [5] is T1, C-X-C chemokine receptor type 4. Kind of series: Binding affinity to CXCR4 in human MDA-MB-231 cells assessed as increase in thermal stability at 50 to 55 degreeC at 100 nM incubated for 12 hrs by CETSA. It is filed as cell-based.
The test system of series [6] is Mus musculus. Description: Antiinflammatory activity in ip dosed xylene-induced mouse ear swelling model assessed as reduction in ear swelling pretreated with xylene for 30 mins followed by compound addition and measured after 2 hrs. It is filed as functional, organism-based. To be noted: dose 10-30 mg/kg.
Series [7] concerns Mus musculus. Kind of series: Antiinflammatory activity in xylene-induced mouse ear swelling model assessed as reduction in inflammatory cell infiltration at 10 to 30 mg/kg, ip pretreated with xylene for 30 mins followed by compound addition and measured after 2 hrs by H and E staining based light microscopic analysis. Particulars: dose 10-30 mg/kg. It is filed as functional, organism-based.

Series [8] is described as follows: Toxicity in ip dosed mouse assessed as median lethal dose by Bliss method. It is filed as organism-based. Particulars: in vivo, read-out: LD.
For series [9], the system named is MDA-MB-231. Description: Cytotoxicity against human MDA-MB-231 cells assessed as reduction in cell viability at 10 uM incubated for 24 hrs by MTT assay. Particulars: mda-mb-231, 24 h. It is filed as toxicity, cell-based. (In general: Tetrazolium dyes change colour on reduction, which living cells bring about.)

pIC50: −log10 of the molar value. The source made the active and inactive calls. The calls are words filed in the database; no cut-off is given here.

T1 sequence (P61073 whole entry): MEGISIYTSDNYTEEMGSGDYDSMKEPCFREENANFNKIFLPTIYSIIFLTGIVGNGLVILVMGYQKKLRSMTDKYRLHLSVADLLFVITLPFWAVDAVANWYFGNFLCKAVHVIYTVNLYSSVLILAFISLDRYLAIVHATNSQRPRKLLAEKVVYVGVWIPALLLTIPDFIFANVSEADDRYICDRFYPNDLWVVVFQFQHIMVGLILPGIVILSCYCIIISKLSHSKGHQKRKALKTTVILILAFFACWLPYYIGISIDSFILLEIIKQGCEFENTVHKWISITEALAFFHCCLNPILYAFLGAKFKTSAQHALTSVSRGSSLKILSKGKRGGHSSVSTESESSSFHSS

For `O=S(=O)(NCC1CCCO1)c1ccc(Oc2ccc(S(=O)(=O)NCC3CCCO3)cc2)cc1` (centres undefined), the negative logarithm of the IC50 (pIC50) – broadly, the IC50 on a negative log10 scale, so that one unit is a factor of ten – in series [1] is 6.60. In addition, the inhibition result in series [2] and in series [3] was “Active” throughout. In addition, in series [4], the inhibition result is “Dose-Dependent Effect”. Besides, the result in series [5] and in series [7] was Active. Moreover, the Activity entry in [6] is “Dose-Dependent Effect”; in series [9], “Non-Toxic”. Moreover, in series [8], the LD50 was 72.6 mg/kg.
